According to PubChem BioAssay (NCI):
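In this assay, cells in 96-well plates receive the compound at five concentrations for 48 hours. Endpoints are linearly interpolated between the surrounding concentrations. Abbreviation: GI50, concentration required for 50% inhibition of growth. TGI denotes the concentration required for complete inhibition of growth.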

Tests used:
Experiment in all cases: NCI-60 cell line screen, 48 h
[1] = system: HCC-2998 colon
[2] = system: SNB-75 CNS
[3] = system: M14 melanoma
[4] = system: 786-0 renal
[5] = system: KM12 colon
[6] = system: NCI-H23 lung
[7] = system: COLO 205 colon
[8] = system: HCT-15 colon
[9] = system: SF-539 CNS
[10] = system: NCI-H226 lung
[11] = system: OVCAR-3 ovarian
[12] = system: HOP-62 NSCLC
[13] = system: SF-268 CNS
[14] = system: BT-549 breast
[15] = system: ACHN renal
[16] = system: SR leukemia
[17] = system: MOLT-4 leukemia
[18] = system: DU-145 prostate
[19] = system: TK-10 renal
[20] = system: SNB-19 CNS
[21] = system: T-47D breast
[22] = system: MCF7 breast
[23] = system: UO-31 renal
[24] = system: K-562 leukemia
[25] = system: NCI-H522 lung
[26] = system: CCRF-CEM leukemia
[27] = system: SK-MEL-5 melanoma
[28] = system: HCT-116 colon
[29] = system: PC-3 prostate
[30] = system: RXF 393 renal
[31] = system: NCI/ADR-RES ovarian
[32] = system: UACC-257 melanoma
[33] = system: MDA-MB-435
[34] = system: RPMI-8226 leukemia
[35] = system: A549 NSCLC
[36] = system: HT29 colon
[37] = system: NCI-H460 lung
[38] = system: HL-60(TB) leukemia
[39] = system: HS 578T breast
[40] = system: MALME-3M melanoma
[41] = system: HOP-92 NSCLC
[42] = system: U251 CNS
[43] = system: LOX IMVI melanoma
[44] = system: SW-620 colon
[45] = system: SK-OV-3 ovarian
[46] = system: SK-MEL-28 melanoma
[47] = system: MDA-MB-231 breast
[48] = system: EKVX NSCLC
[49] = system: SK-MEL-2 melanoma
[50] = system: CAKI-1 renal
[51] = system: OVCAR-4 ovarian
[52] = system: SF-295 CNS
[53] = system: A498 renal
[54] = system: SN12C renal
[55] = system: OVCAR-5 ovarian
[56] = system: OVCAR-8 ovarian
[57] = system: UACC-62 melanoma
[58] = system: IGROV1 ovarian

With C/C(=C\COc1c2c(cc3c1CCO3)OC1(C=C2)OC(CC/C(C)=C/COc2c3ccoc3cc3oc(=O)ccc23)C(C)(C)O1)CCC(O)C(C)(C)O (centres undefined) the GI50 [1] was 89.6 µM, the TGI [1] was > 100 µM and the GI50 [2] was 21.1 µM. The TGI [2] was > 100 µM, the GI50 [3] was 85.1 µM and the TGI [3] was > 100 µM. The GI50 [4] was > 100 µM, the TGI [4] was > 100 µM and the GI50 [5] was 11.7 µM. For the same compound, the TGI [5] was > 100 µM, the GI50 [6] was 33.7 µM and the TGI [6] was > 100 µM. For the same compound, the GI50 [7] was 23.1 µM, the TGI [7] was > 100 µM and the GI50 [8] was 85 µM. For the same compound, the TGI [8] was > 100 µM, the GI50 [9] was 63.5 µM and the TGI [9] was > 100 µM. For the same compound, the GI50 [10] was 58.7 µM, the TGI [10] was > 100 µM and the GI50 [11] was 15 µM. The TGI [11] was > 100 µM, the GI50 [12] was > 100 µM and the TGI [12] was > 100 µM. The GI50 [13] was 21.1 µM, the TGI [13] was > 100 µM and the GI50 [14] was 16.7 µM. The TGI [14] was > 100 µM, the GI50 [15] was 15 µM and the TGI [15] was > 100 µM. For the same compound, the GI50 [16] was 5.04 µM, the TGI [16] was > 100 µM and the GI50 [17] was 4.76 µM. For the same compound, the TGI [17] was 53.1 µM, the GI50 [18] was > 100 µM and the TGI [18] was > 100 µM. The GI50 [19] was 78.8 µM, the TGI [19] was > 100 µM and the GI50 [20] was 55.2 µM. For the same compound, the TGI [20] was > 100 µM, the GI50 [21] was 3.13 µM and the TGI [21] was > 100 µM. For the same compound, the GI50 [22] was 5.62 µM, the TGI [22] was > 100 µM and the GI50 [23] was 25.7 µM. For the same compound, the TGI [23] was > 100 µM, the GI50 [24] was 3.82 µM and the TGI [24] was > 100 µM. The GI50 [25] was 24.3 µM, the TGI [25] was > 100 µM and the GI50 [26] was 8.78 µM. The TGI [26] was > 100 µM, the GI50 [27] was 8.85 µM and the TGI [27] was > 100 µM. For the same compound, the GI50 [28] was 18.4 µM, the TGI [28] was > 100 µM and the GI50 [29] was 6.56 µM. For the same compound, the TGI [29] was > 100 µM, the GI50 [30] was 79.8 µM and the TGI [30] was > 100 µM. The GI50 [31] was 23.8 µM, the TGI [31] was > 100 µM and the GI50 [32] was 25.3 µM. For the same compound, the TGI [32] was > 100 µM, the GI50 [33] was 36.4 µM and the TGI [33] was > 100 µM. The GI50 [34] was 2.95 µM, the TGI [34] was 23.2 µM and the GI50 [35] was 13.3 µM. The TGI [35] was > 100 µM, the GI50 [36] was 22.4 µM and the TGI [36] was > 100 µM. For the same compound, the GI50 [37] was 9.65 µM, the TGI [37] was > 100 µM and the GI50 [38] was 3.61 µM. The TGI [38] was 20.9 µM, the GI50 [39] was 27.3 µM and the TGI [39] was > 100 µM. For the same compound, the GI50 [40] was 68.7 µM, the TGI [40] was > 100 µM and the GI50 [41] was 7.56 µM. For the same compound, the TGI [41] was > 100 µM, the GI50 [42] was 44.4 µM and the TGI [42] was > 100 µM. The GI50 [43] was 28.2 µM, the TGI [43] was > 100 µM and the GI50 [44] was 62.3 µM. The TGI [44] was > 100 µM, the GI50 [45] was > 100 µM and the TGI [45] was > 100 µM. The GI50 [46] was 16.9 µM, the TGI [46] was > 100 µM and the GI50 [47] was 7.59 µM. For the same compound, the TGI [47] was > 100 µM, the GI50 [48] was 5.93 µM and the TGI [48] was > 100 µM. The GI50 [49] was 9.58 µM, the TGI [49] was > 100 µM and the GI50 [50] was 8.07 µM. For the same compound, the TGI [50] was > 100 µM, the GI50 [51] was 6.23 µM and the TGI [51] was > 100 µM. For the same compound, the GI50 [52] was 9.09 µM, the TGI [52] was > 100 µM and the GI50 [53] was 32.8 µM. The TGI [53] was > 100 µM, the GI50 [54] was 89.1 µM and the TGI [54] was > 100 µM. The GI50 [55] was 80.2 µM, the TGI [55] was > 100 µM and the GI50 [56] was 8.56 µM. The TGI [56] was > 100 µM, the GI50 [57] was 4.87 µM and the TGI [57] was > 100 µM.

CC/C(=C(/c1ccc(O)cc1)c1ccc(OCCN2CCCCC2)cc1)c1ccc(OC)cc1 was tested, and the GI50 [1] was 2.9 µM, the TGI [1] was 9.13 µM and the GI50 [2] was 10.4 µM. The TGI [2] was 23.3 µM, the GI50 [3] was 1.73 µM and the TGI [3] was 3.38 µM. For the same compound, the GI50 [4] was 1.28 µM, the TGI [4] was 2.74 µM and the GI50 [5] was 2.63 µM. For the same compound, the TGI [5] was 12.2 µM, the GI50 [6] was 10.1 µM and the TGI [6] was 23.4 µM. For the same compound, the GI50 [7] was 1.49 µM, the TGI [7] was 3.12 µM and the GI50 [8] was 1.45 µM. The TGI [8] was 5.46 µM, the GI50 [9] was 1.66 µM and the TGI [9] was 3.19 µM. For the same compound, the GI50 [10] was 16.8 µM, the TGI [10] was 37.9 µM and the GI50 [11] was 1.6 µM. For the same compound, the TGI [11] was 4.23 µM, the GI50 [12] was 1.83 µM and the TGI [12] was 3.91 µM. It also gave a GI50 [13] of 2.14 µM, a TGI [13] of 6.38 µM and a GI50 [14] of 1.6 µM. The TGI [14] was 3.19 µM, the GI50 [15] was 1.94 µM and the TGI [15] was 4.15 µM. For the same compound, the GI50 [16] was 0.215 µM, the TGI [16] was 0.649 µM and the GI50 [17] was 1.6 µM. The TGI [17] was 5.71 µM, the GI50 [18] was 4.52 µM and the TGI [18] was 18.1 µM. It also gave a GI50 [19] of 14.7 µM, a TGI [19] of 29.2 µM and a GI50 [20] of 1.97 µM. The TGI [20] was 4.62 µM, the GI50 [21] was 1.01 µM and the TGI [21] was 3 µM. The GI50 [22] was 0.0707 µM, the TGI [22] was 2.08 µM and the GI50 [23] was 1.13 µM. For the same compound, the TGI [23] was 2.49 µM, the GI50 [24] was 0.29 µM and the TGI [24] was 1.16 µM. It also gave a GI50 [25] of 3.41 µM, a TGI [25] of 13.7 µM and a GI50 [26] of 0.513 µM. For the same compound, the TGI [26] was 5.09 µM, the GI50 [27] was 1.79 µM and the TGI [27] was 3.21 µM. It also gave a GI50 [28] of 1.15 µM, a TGI [28] of 2.51 µM and a GI50 [29] of 1.41 µM. For the same compound, the TGI [29] was 3.34 µM, the GI50 [31] was 8.15 µM and the TGI [31] was 22.4 µM. It also gave a GI50 [33] of 1.58 µM, a TGI [33] of 3.1 µM and a GI50 [34] of 1.24 µM. The TGI [34] was 3.61 µM, the GI50 [35] was 4.11 µM and the TGI [35] was 15.4 µM. The GI50 [36] was 1.21 µM, the TGI [36] was 3.67 µM and the GI50 [37] was 2.17 µM. For the same compound, the TGI [37] was 4.72 µM, the GI50 [38] was 1.99 µM and the TGI [38] was 4.1 µM. The GI50 [39] was 2.09 µM, the TGI [39] was 5.52 µM and the GI50 [40] was 1.42 µM. For the same compound, the TGI [40] was 2.98 µM, the GI50 [41] was 0.665 µM and the TGI [41] was 2.38 µM. The GI50 [42] was 1.85 µM, the TGI [42] was 4.22 µM and the GI50 [43] was 1.63 µM. For the same compound, the TGI [43] was 3.27 µM, the GI50 [44] was 1.77 µM and the TGI [44] was 3.89 µM. It also gave a GI50 [45] of 14 µM, a TGI [45] of 27.3 µM and a GI50 [46] of 1.78 µM. For the same compound, the TGI [46] was 3.48 µM, the GI50 [47] was 1.61 µM and the TGI [47] was 3.84 µM. It also gave a GI50 [48] of 4.05 µM, a TGI [48] of 18.4 µM and a GI50 [58] of 2.5 µM. It also gave a TGI [58] of 8.95 µM, a GI50 [49] of 2.04 µM and a TGI [49] of 4.83 µM. It also gave a GI50 [51] of 1.88 µM, a TGI [51] of 5.99 µM and a GI50 [52] of 1.79 µM. It also gave a TGI [52] of 3.62 µM, a GI50 [53] of 4.29 µM and a TGI [53] of 17.6 µM. For the same compound, the GI50 [54] was 2.82 µM, the TGI [54] was 11.3 µM and the GI50 [55] was 3.25 µM. The TGI [55] was 14.8 µM, the GI50 [56] was 2.45 µM and the TGI [56] was 6.02 µM. It also gave a GI50 [57] of 2.01 µM and a TGI [57] of 4.03 µM.
